The results in this text go back to US8084459B2, “Substituted quinazolinones for treating neurological conditions” (Prana Biotechnology Ltd, priority 2004, dated 2011).

For one series, the target named is T1, Aβ 1-42 (Homo sapiens, UniProt P05067).
T1 construct: The reaction solutions contained Aβ 1-42 at concentrations
Put plainly: Assay 1 Fluorometric H2O2 assay (peroxide). Format: biochemical. Conditions: inhibition of H2O2 generation by Aβ with copper. The protocol:
Assay 1. Fluorometric H2O2 Assay
A fluorometric assay was used to test the ability of a test compound to inhibit hydrogen peroxide generation by Aβ in the presence of copper based on dichlorofluoroscein diacetate (DCF; Molecular Probes, Eugene Oreg.). The DCF solution (5 mM) in 100% dimethyl sulphoxide (previously purged with argon for 1 hr at 20° C.) was deacetylated in the presence of 0.025M NaOH for 30 min and neutralised at pH 7.4 to a final concentration of 1 mM. Horseradish peroxidase (HRP) stock solution was prepared to 1 μM at pH 7.4. The reactions were carried out in PBS, pH 7.4 in a 96 well plate (total volume=250 μl/well). The reaction solutions contained Aβ 1-42 at concentrations in the range of 50 nM to 1 μM, copper-glycine chelate (Cu-Gly), was prepared by adding CuCl2 to glycine in the ratio of 1:6 and added to the Aβ in the proportion 2Cu-Gly:1Aβ), reducing agents including dopamine (5 μM) or ascorbic acid, deacetylated DCF 100 μM, and HRP, 0.1 μM. 1-10 μM EDTA or another chelator may also be present as a control for free copper, but was not required for the assay to function. The reaction mixture was incubated at 37 C for 60 min. Catalase (4000 units/ml) and H2O2 (1-2.5 μM) standards in PBS pH 7.4 may be included as positive controls. Fluorescence was recorded using a plate reader with excitation and emission filters at […] respectively. H2O2 concentration may be established by comparing fluorescence with the H2O2 standards. Inhibition of Aβ H2O2 production was assayed by including a given concentration of test compound(s) in the test wells.

The nature of series [1]: Assay 3(d) test compound cytotoxicity (MTS). Format: cell-based. Conditions: BL6Jx129sv, mouse, primary cortical neuronal cultures, cortical neurons; for viability at 4 days, 1 µM: read-out: Assay 3(d) Cytotoxicity (% viable at 1 uM); for viability at 4 days, 10 µM: read-out: Assay 3(d) Cytotoxicity (% viable at 10 uM). Here is the method: Primary Cortical Neuronal Cultures
Cortical cultures were prepared as previously described (White et al., 1998). Embryonic day 14 BL6Jx129sv mouse cortices were removed, dissected free of meninges and dissociated in 0.025% (wt/vol) trypsin. Dissociated cells were plated in 48 well culture plates at a density of 2×10^6 cells/mL in MEM with 25% (vol/vol) FCS and 5% (vol/vol) HS and incubated at 37° C., 2 hrs. Media was then replaced with Neurobasal media (Invitrogen Life Technologies) and B27 supplements (Invitrogen Life Technologies). Cultures were maintained at 37° C. in 5% CO2. Prior to experimentation, the culture medium was replaced with Neurobasal media and B27 minus antioxidants (Invitrogen Life Technologies).
(a) MTS Assay for Cell Viability
Cell viability is determined using the MTS assay. Culture medium is replaced with fresh neurobasal medium plus B27 supplements minus antioxidants. 1/10 volume MTS solution (Cell Titre 96 Aqueous One, Promega Corporation) and incubated at 37° C., 2 hrs. 200 microlitre aliquots are measured with a spectrophotometer at 560 nm.
(d) Assay for Test Compound Cytoxicity
Neuronal cortical cells were cultured for five days as per Assay 2 in NB media and B27 supplement.
On day six the test compounds were added to the neuronal cell cultures in NB media and B27 supplement minus antioxidants.
Test compounds were dissolved in 100% DMSO to a concentration of 2.5 mM (10 mM if excess compound was weighed out per vial—then diluted to 2.5 mM). 2.5 mM stock solution was serially diluted 1 in 10 to give working solutions of 250 uM, 25 uM, 2.5 uM. Test compounds were not added directly to cells, instead they were added to a 48 well ‘Drug Plate’ as comprised below:
Preparation of “Drug Plate”:
• Well 1: 576 ul NB+B27 (no antioxidant)*+24 ul 2.5 uM test compound • Well 2: 576 ul NB+B27 (no antioxidant)+24 ul 25 uM test compound • Well 3: 576 ul NB+B27 (no antioxidant)+24 ul 250 uM test compound • Well 4: 576 ul NB+B27 (no antioxidant)+24 ul 2.5 uM test compound • Well 5: 576 ul NB+B27 (no antioxidant)+24 ul 25 uM test compound • Well 6: 576 ul NB+B27 (no antioxidant)+24 ul 250 uM test compound • Well 7: 576 ul NB+B27 (no antioxidant)+24 ul test compound diluent** • Well 8: 600 ul NB+B27 (no antioxidant)
The Drug Plate was incubated at 37° C. for 15 mins. 200 ul of each well was added in triplicate to the corresponding cell plate. The cell plate was incubated at 37° C., for 4 days, (2 compounds are tested on each plate of cells).
* NB media and B27 (no antioxidants),
** PBT diluent 10% DMSO in NB+B27 (no antioxidants)
On completion of the assay, 1/10 volume MTS was added per well of plate (ie 25 ul/250 ul). The plates were incubated at 37° C. for 2 hrs, and then absorbance was read at 560 nm.

Series [2] can be described thus: Assay 16 mouse plasma levels of test compounds. Conditions: highest level found in mice (Up to); oral dosing 30 mg/kg described for PB 1075-1077. It is filed as in vivo. The protocol:
Assay 16. Determination of Mouse Plasma Levels of Test Compounds PB 1075
Oral administration of PB 1075 at 30 mg/kg, as a suspension in Na-Carboxymethyl Cellulose (CMC) was administered by oral gavage to four mice. Two mice were sacrificed 30 minutes after administration and two mice were sacrificed 60 minutes after administration. Blood was obtained by cardiac puncture and plasma separated by centrifugation.
The concentration of PB 1075 was determined by LC/MS using the triple quadrupole instrument. The mobile phase consisted of an acetonitrile (ACN)/water gradient (containing 0.05% Formic acid) and the column was a Phenomenex Lunea 5 um C8 (50×2 mm) column.
The supplied acute toxicity mouse plasma samples were directly injected following a protein precipitation with ACN. The analytical method in plasma was linear in the range of 10 to 10,000 ng/ml (R^2=0.994). Recovery of PB 1075 from plasma was ˜100%.
Oral administration of PB 1076 at 30 mg/kg, as a suspension in Na-Carboxymethyl Cellulose (CMC) was administered by oral gavage to four mice. Two mice were sacrificed 30 minutes after administration and two mice were sacrificed 60 minutes after administration. Blood was obtained by cardiac puncture and plasma separated by centrifugation.
The concentration of PB 1076 was determined by LC/MS using the triple quadrupole instrument. The mobile phase consisted of an acetonitrile (ACN)/water gradient (containing 0.05% Formic acid) and the column was a Phenomenex Luna 5 μM C8 (50×2 mm) column.
The mouse plasma samples were directly injected following a protein precipitation with ACN. The analytical method in plasma was linear in the range of 500 to 10,000 ng/ml (R^2=0.999). Recovery of PB 1076 from plasma was ˜85%.
Oral administration of PB 1077 at 30 mg/kg, as a suspension in Na-Carboxymethyl Cellulose (CMC) was administered by oral gavage to four mice. Two mice were sacrificed 30 minutes after administration and two mice were sacrificed 60 minutes after administration. Blood was obtained by cardiac puncture and plasma separated by centrifugation.
The concentration of PB 1077 was determined by LC/MS using the triple quadrupole instrument. The mobile phase consisted of an acetonitrile (ACN)/water gradient (containing 0.05% Formic acid) and the column was a Phenomenex Luna 5 μM C8 (50×2 mm) column.
The mouse plasma samples were directly injected following a protein precipitation with ACN. The analytical method in plasma was linear in the range of 5 to 5,000 ng/ml (R^2=0.999). Recovery of PB 1077 from plasma was ˜92%.

Each structure is given as a SMILES string. Where a name gives a salt, the structure may show the parent alone.

T1 sequence (P05067 672-713 limits assumed): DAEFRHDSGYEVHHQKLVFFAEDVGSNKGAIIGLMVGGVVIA

`CN1CCCC1CCn1cnc2c(O)c(Cl)cc(Cl)c2c1=O` (centres unmarked) [Compound 1078] gave an IC50 against Aβ 1-42 of 730 nM. Besides, in series [1], the viability at 4 days, 1 µM was determined as 94% and the viability at 4 days, 10 µM amounted to 94%. Also, in series [2], the “Assay 16 Mice plasma concentration” value is recorded as “Up to 262 ng/mL in”.
In turn, `Cc1cnc(-n2cnc3c(O)c(Cl)cc(Cl)c3c2=O)s1` [Compound 1082] yielded an IC50 on Aβ 1-42 of 4500 nM. In series [1], the viability at 4 days, 1 µM is 94% and the viability at 4 days, 10 µM is 70%.
In turn, `Cn1c(-n2cnc3c(O)c(Cl)cc(Cl)c3c2=O)nc2ccccc21` [Compound 1083] displayed an IC50 on Aβ 1-42 of 2300 nM. In addition, in series [1], the viability at 4 days, 10 µM is 97%.
With `O=c1c2c(Cl)cc(Cl)c(O)c2ncn1N1CCCCC1` [Compound 1086], the IC50 at Aβ 1-42 is 390 nM. In addition, in series [1], the viability at 4 days, 1 µM turned out to be 98% and the viability at 4 days, 10 µM is 51%.
In the same order, the values of `O=c1c2c(Cl)cc(Cl)c(O)c2ncn1-c1cccnc1` [Compound 1092] are 860 nM, 95% and 81%.
`COc1ccc(-n2cnc3c(O)c(Cl)cc(Cl)c3c2=O)cn1` [Compound 1093] returned an IC50 against Aβ 1-42 of 390 nM. Further, in series [1], the viability at 4 days, 1 µM was found to be 122% and the viability at 4 days, 10 µM worked out at 13%.
With `Br.Cc1cccnc1Cn1cnc2c(O)c(Cl)cc(Cl)c2c1=O` [Compound 1098], the IC50 against Aβ 1-42 is 440 nM. Besides, in series [1], the viability at 4 days, 1 µM stood at 99% and the viability at 4 days, 10 µM was 88%.
For `Nn1cnc2c(O)c(Cl)cc(Cl)c2c1=O` [Compound 1099, 3-Amino-5,7-dichloro-8-hydroxy-3H-quinazolin-4-one hydrobromide], the IC50 against Aβ 1-42 amounted to 690 nM.
Regarding `Br.CC(C)Cn1cnc2c(O)c(Cl)cc(Cl)c2c1=O` [Compound 1107], the IC50 at Aβ 1-42 worked out at 400 nM. In series [1], the viability at 4 days, 1 µM is 92% and the viability at 4 days, 10 µM was 59%.
In the same order, the values of `Br.CC(C)n1cnc2c(O)c(Cl)cc(Cl)c2c1=O` [Compound 1108] are 250 nM, 100% and 53%.
Regarding `CCN(CC)CCn1cnc2c(O)c(Cl)cc(Cl)c2c1=O` [Compound 1110], the midpoint of inhibition at Aβ 1-42, the IC50, lay at 460 nM. The viability at 4 days, 10 µM in series [1] is 77%.
Turning to `CCCCn1cnc2c(O)c(Cl)cc(Cl)c2c1=O` [Compound 1111], the IC50 against Aβ 1-42 was 320 nM. Also, in series [1], the viability at 4 days, 1 µM came out at 93% and the viability at 4 days, 10 µM was found to be 67%.
`Br.CCC(C)n1cnc2c(O)c(Cl)cc(Cl)c2c1=O` (centres unmarked) [Compound 1112] gave an IC50 on Aβ 1-42 of 330 nM. Moreover, in series [1], the viability at 4 days, 1 µM was found to be 89% and the viability at 4 days, 10 µM was determined as 46%. Also, the “Assay 16 Mice plasma concentration” value in series [2] is “Upto 2949 ng/mL in”.
`CC(Br)CCn1cnc2c(O)c(Cl)cc(Cl)c2c1=O` (centres unmarked) [Compound 1114] showed an IC50 at Aβ 1-42 of 580 nM. Also, the viability at 4 days, 10 µM in series [1] was found to be 73%.
`CCn1cnc2c(O)c(Cl)cc(Cl)c2c1=O` [Compound 1115] gave an IC50 at Aβ 1-42 of 730 nM. In series [1], the viability at 4 days, 1 µM was found to be 101% and the viability at 4 days, 10 µM worked out at 73%.
In turn, `C/C=C/Cn1cnc2c(O)c(Cl)cc(Cl)c2c1=O` [Compound 1126] registered an IC50 on Aβ 1-42 of 370 nM.
On the same count and under the same terms, to `CCn1cnc2c(O)ccc(Cl)c2c1=O` [Compound 1130] belongs 880 nM; to `CCCn1cnc2c(O)ccc(Cl)c2c1=O` [Compound 1131], 500 nM.
`CN(C)Cc1nc2c(O)c(Cl)cc(Cl)c2c(=O)[nH]1` [Compound 1147] registered an IC50 at Aβ 1-42 of 260 nM.
On the same count and under the same terms, to `CNCc1nc2c(O)c(Cl)cc(Cl)c2c(=O)n1C` [Compound 1161] belongs 140 nM.

Broadly, the IC50 is the midpoint of a concentration-inhibition curve. A lower IC50 goes with greater potency.
